Drawing on PubChem BioAssay (NCI), this text covers TGI for 9 molecules.

SMILES strings stand for the structures.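 A five-concentration, 48-hour dose response in 96-well plates underlies each endpoint, interpolated linearly between surrounding concentrations. TGI: total growth inhibition.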

Some test systems named below: MDA-MB-435; LOX IMVI melanoma; ACHN renal; RXF 393 renal; PC-3 prostate; UACC-62 melanoma; OVCAR-3 ovarian; OVCAR-8 ovarian; NCI-H23 lung; CCRF-CEM leukemia; A498 renal; EKVX NSCLC.
Common to all, as to experiment: NCI-60 cell line screen, 48 h

Take `Cn1c2ccccc2n2c3ccccc3c3nnc(N)c-3c12`: the TGI in the test on MDA-MB-435 was greater than 100 µM; with LOX IMVI melanoma, greater than 100 µM; in the test on ACHN renal, greater than 100 µM; in the test with RXF 393 renal, greater than 87.6 µM; in the test on PC-3 prostate, greater than 100 µM; with UACC-62 melanoma, greater than 100 µM. Also, the TGI in the test with OVCAR-3 ovarian, in the test on OVCAR-8 ovarian, in the test with NCI-H23 lung, in the test on CCRF-CEM leukemia, in the test with A498 renal and in the test with EKVX NSCLC was greater than 100 µM each time.

Turning to `O=c1oc2cc(O)ccc2c(O)c1C(c1ccc(/C=C/c2ccccc2)cc1)c1c(O)c2ccc(O)cc2oc1=O`, the TGI in the test with MDA-MB-435, in the test on LOX IMVI melanoma, with ACHN renal, in the test on RXF 393 renal, in the test on PC-3 prostate and in the test with UACC-62 melanoma was greater than 100 µM each time. Further, the TGI in the test on OVCAR-3 ovarian, in the test with OVCAR-8 ovarian, with NCI-H23 lung, in the test on CCRF-CEM leukemia, with A498 renal and with EKVX NSCLC was greater than 100 µM throughout.

In the case of `COc1ccc(C2OC2C(=O)C23CC4CC(CC(C4)C2)C3)cc1` (stereo not drawn), the TGI in the test on MDA-MB-435 is greater than 100 µM; in the test with LOX IMVI melanoma, greater than 100 µM; with ACHN renal it was greater than 100 µM; in the test on RXF 393 renal, greater than 100 µM; with PC-3 prostate, greater than 100 µM; with UACC-62 melanoma it was 49 µM. Moreover, the TGI with OVCAR-3 ovarian, with OVCAR-8 ovarian, in the test with NCI-H23 lung, in the test on CCRF-CEM leukemia, in the test with A498 renal and in the test on EKVX NSCLC was greater than 100 µM in each case.

With `COc1ccccc1Nc1nc(N)nc(N)c1N`, the TGI is 82.6 µM in the test with MDA-MB-435; 41.7 µM in the test with LOX IMVI melanoma; greater than 100 µM with ACHN renal; greater than 100 µM with RXF 393 renal; greater than 100 µM in the test on PC-3 prostate; greater than 100 µM in the test with UACC-62 melanoma. The TGI with OVCAR-3 ovarian is greater than 100 µM; in the test on OVCAR-8 ovarian, greater than 100 µM; in the test on NCI-H23 lung, greater than 100 µM; in the test on CCRF-CEM leukemia, 50.8 µM; in the test on A498 renal, greater than 100 µM; in the test on EKVX NSCLC, greater than 100 µM.

For the molecule `C(#C[C@@]12CCC[C@@H]1NCO2)c1ccc2c(c1)OCO2`, the TGI with MDA-MB-435, with LOX IMVI melanoma, in the test on ACHN renal, in the test on RXF 393 renal, with PC-3 prostate and in the test with UACC-62 melanoma was greater than 100 µM in each case. In addition, the TGI with OVCAR-3 ovarian, in the test on OVCAR-8 ovarian, with NCI-H23 lung, with CCRF-CEM leukemia, in the test on A498 renal and with EKVX NSCLC was greater than 100 µM in each case.

Turning to `NS(=O)(=O)c1ccc(NCc2cccc3c(=O)c4ccc(Cl)cc4oc23)cc1`, the TGI in the test with MDA-MB-435, in the test on LOX IMVI melanoma, in the test on ACHN renal, in the test with RXF 393 renal, with PC-3 prostate and in the test with UACC-62 melanoma was greater than 100 µM throughout. Also, the TGI was greater than 100 µM in the test on OVCAR-3 ovarian; greater than 67.2 µM in the test with OVCAR-8 ovarian; greater than 80 µM in the test on NCI-H23 lung; greater than 52.6 µM in the test with CCRF-CEM leukemia; greater than 100 µM in the test with A498 renal; greater than 65.5 µM in the test on EKVX NSCLC.

With `Cc1c(CNc2ccc(Cl)c(Cl)c2Cl)cnc2nc(N)nc(N)c12`, the TGI in the test with MDA-MB-435 was greater than 48.1 µM; with LOX IMVI melanoma, 13.6 µM; in the test on ACHN renal it was greater than 48.8 µM; with RXF 393 renal it was greater than 55.5 µM; in the test on PC-3 prostate it was greater than 49 µM; in the test on UACC-62 melanoma, 15.8 µM. Further, the TGI in the test on OVCAR-3 ovarian is greater than 51.3 µM; in the test on OVCAR-8 ovarian, 1.41 µM; with NCI-H23 lung, greater than 49.3 µM; in the test with CCRF-CEM leukemia, 6.55 µM; with A498 renal, greater than 100 µM; with EKVX NSCLC, greater than 69 µM.

Consider `CCOP(=O)(OCC)/C(F)=C/c1ccc(F)cc1`, for which the TGI in the test on MDA-MB-435, in the test on LOX IMVI melanoma, in the test with ACHN renal, in the test with RXF 393 renal, in the test on PC-3 prostate and with UACC-62 melanoma was greater than 100 µM throughout. The TGI in the test on OVCAR-3 ovarian, with OVCAR-8 ovarian, with NCI-H23 lung, with CCRF-CEM leukemia, in the test with A498 renal and with EKVX NSCLC was greater than 100 µM throughout.

Take `COc1ccc(Cc2nc3cc(C(F)(F)F)ccc3n2C[C@@H]2CCCN3CCCCC23)cc1` (stereo partly drawn): the TGI with MDA-MB-435 is 26.8 µM; in the test with LOX IMVI melanoma, 24.9 µM; in the test on ACHN renal, 22.5 µM; with RXF 393 renal, 22.3 µM; in the test with PC-3 prostate it was 24 µM; with UACC-62 melanoma, 11.5 µM. Besides, the TGI in the test on OVCAR-3 ovarian was 12.8 µM; in the test with OVCAR-8 ovarian, 30.3 µM; in the test on NCI-H23 lung, 30.9 µM; with CCRF-CEM leukemia, greater than 44.5 µM; in the test on A498 renal, 14.1 µM; with EKVX NSCLC, 27.7 µM.
